Measurements as given in paper PMC11362529, “Exploring the neuroprotective potential of Nrf2-pathway activators against annonacin toxicity” (Scientific Reports, 2024).

Legend:
Assay type in all cases: cell-based, human
LUHMES cells = test: Annonacin titration, calcein viability assay; conditions: 20 nM annonacin, 48 h, glucose-reduced medium
Description: Commercial annonacin (Cayman Chemical, Michigan, MI, USA) was diluted in DMSO and stored in small aliquots of 100 µM stock solution at -80 °C. For annonacin titration, LUHMES cells were seeded onto a 48-well microplate and intoxicated on day 6 of differentiation with different concentrations of annonacin, over a period of 48 h, in glucose-reduced differentiation medium of DMEM without glucose (Gibco), supplemented with 2.4 mM glucose, 1% N-2 supplement, 1 µg/ml tetracycline, […] GDNF, and 490 µg/ml dbcAMP to mimic the physiological concentration of glucose in the human brain[44],[45]. Each experimental condition was run in triplicates. Cell viability was measured by calcein viability assay, as detailed below. […]
The calcein AM green dye (Thermo Fisher Scientific) was diluted in DMSO to obtain a 1 mM stock solution. […] Cells were lysed in a 200 µl volume of 1% Triton™ X-100 in PBS (phosphate buffered saline) and the lysate transferred to a 96‐well black plate for the readout. The fluorescence signal was measured on a FLUOstar® Omega plate reader (BMG LabTech, Ortenberg, Germany) at λ Ex/Em = 485/530 nm and data was analyzed with the MARS data analysis software (BMG LabTech). For background correction, we subtracted the background control signal from the measured values of all experimental conditions. […]

total tau transcripts = test: Total tau mRNA by RT-qPCR; conditions: 20 nM annonacin alone, 48 h, vs control
Description: (§1) LUHMES cells were seeded on PLO/FN coated 6-well microplates and the pharmacological treatments were performed as previously explained. The cells were washed in HBSS, prior to being collected for mRNA isolation (RNeasy® Plus Mini Kit, Qiagen, Venlo, Netherlands), following the manufacturer’s instructions. The mRNA concentrations were determined on a Nano-Drop 2000c (Thermo Fisher Scientific) and 1 µg of mRNA was reverse-transcribed into cDNA with the iScript™ Reverse Transcription Supermix for RT-qPCR Kit (Bio-Rad) on a thermal cycler (SensoQuest, Göttingen, Germany). Real-time PCR was performed using SYBR™ Select Master Mix for CFX (Thermo Fisher Scientific) with 30 ng cDNA and 0.4 µM of primers against the respective target genes (Supplementary Table S3), in a 20 µl total volume, on a CFX96 Touch™ Real-Time Cycler (Bio-Rad). The relative expression of mRNA was calculated using the CFX Manager software (ΔΔCt method) from Bio-Rad, and the Ct values of the target-genes were normalized to the reference genes RPL22 and UBQLN1. The data were reported as fold change relative to the control (DMSO-treated) condition.

3R-tau transcripts = test: 3R-tau mRNA by RT-qPCR; conditions: 20 nM annonacin alone, 48 h, vs control
Description: as §1

NQO1 = NQO1 mRNA after siRNA transfection (RT-qPCR); conditions: Nrf2 siRNA transfected cells, annonacin model
Description: as §1, with “Real-time PCR was performed using SYBR™ Select Master Mix for CFX (Thermo Fisher Scientific) with 30 ng cDNA and 0.4 µM of primers against the respective target genes (Supplementary Table S3), in a 20 µl total volume, on a CFX96 Touch™ Real-Time Cycler (Bio-Rad).” left out, “The data were reported as fold change relative to the control (DMSO-treated) condition.” left out
LUHMES cells seeded on PLO/FN coated 48-well microplates were left to differentiate for 5 days, before being transfected with 25 nM of NRF2-targeting (gene ID 4780) or negative control siRNA (siTOOLs Biotech, Planegg, Germany), in Opti-MEM + GlutaMax medium (Thermo Fisher Scientific) with 0.4% of lipofectamine RNAiMax. […] Cell viability was determined by calcein assay, after 48 h of treatment, as explained before.

HO-1 = HO-1 protein levels by ELISA; conditions: 48 h
Description: Protein expression levels of HO-1 were determined by ELISA (enzyme-linked immunosorbent assay) using a commercial kit (#ab207621, Abcam) according to the manufacturer's instructions. For this purpose, cells were seeded onto PLO/FN coated 6-well microplates. After the pharmacological treatments, cells were washed with warm HBSS, trypsinized and pelleted as before, and finally lysed in 100 µl cell extraction buffer PTR provided by the kit. Sample concentration was measured by BCA, as previously mentioned, and 1 µg of total protein extract was loaded into the respective wells. All samples were run in duplicates and the absorbances were measured on a FLUOstar® Omega plate reader at λ 450 nm. For data analysis, we used the MARS software (BMG LabTech). First, we calculated the means of the absorbances for each condition. The mean value of the blank control (i.e., a condition with only sample diluent buffer) was subtracted from the mean values of all standard and experimental conditions. A 4PL-curve fit was plotted on Prism 9 software (GraphPad Software, San Diego, CA, USA), using the blank-corrected mean values of standard conditions. The obtained curve was used to determine the HO-1 protein concentration, followed by multiplication by the dilution factor to obtain the concentration of the target-protein in each sample.

`CCCCCCCCCCCC[C@@H](O)[C@H]1CC[C@H]([C@H](O)CCCC[C@H](O)CCCCC[C@@H](O)CC2=CC(C)OC2=O)O1` (stereo partly drawn) [annonacin] was tested, and the cell viability (LUHMES cells) was “approximately 50 % of the untreated condition”, the total tau transcripts (total tau transcripts) was “significantly downregulated” and the 3R-tau transcripts (3R-tau transcripts) was “downregulation of 3R-tau transcripts”.

`C=CC(C)(C)c1cc(/C=C/C(=O)c2ccc(O)cc2)c(OC)cc1O` [licochalcone A] was tested, and the “NQO1 expression despite Nrf2 knockdown” value (NQO1) was “still led to an induction of NQO1 expression”.

`Cn1c(Nc2nc3ccc(C(F)(F)F)cc3s2)nc2cc(C(=O)NCCOCCO)ccc21` [HPP-D] was tested, and the HO-1 protein expression (HO-1; absence of annonacin) was “significantly increased the HO-1 protein expression” and the HO-1 protein expression (HO-1; presence of 20 nM annonacin) was “significantly increased the HO-1 protein expression”.
